Assay results from patent publication US20050069498A1, “Method for identifying metabotropic glutamate receptor agonists and potentiators” (priority 2003, published 2005).

Test system: VHipp norepinephrine (NE) release
Test: Ketamine challenge: norepinephrine release in ventral hippocampus by in vivo microdialysis
Conditions: three ketamine doses vs vehicle control, 20 min intervals over 120 min, time course and AUC (FIG. 2, 3)

## CNC1(c2ccccc2Cl)CCCCC1=O (centres unmarked) [Ketamine]
  VHipp norepinephrine (NE) release after ketamine challenge: dose dependent increase
Listed as ketamine
  VHipp norepinephrine (NE) release after ketamine challenge: greater area under the curve
